Where a name gives a salt, the structure may show the parent alone.
Target: T1, hCCR2b (Homo sapiens, UniProt P41597)
T1 sequence (P41597 1-360 isoform P41597-2): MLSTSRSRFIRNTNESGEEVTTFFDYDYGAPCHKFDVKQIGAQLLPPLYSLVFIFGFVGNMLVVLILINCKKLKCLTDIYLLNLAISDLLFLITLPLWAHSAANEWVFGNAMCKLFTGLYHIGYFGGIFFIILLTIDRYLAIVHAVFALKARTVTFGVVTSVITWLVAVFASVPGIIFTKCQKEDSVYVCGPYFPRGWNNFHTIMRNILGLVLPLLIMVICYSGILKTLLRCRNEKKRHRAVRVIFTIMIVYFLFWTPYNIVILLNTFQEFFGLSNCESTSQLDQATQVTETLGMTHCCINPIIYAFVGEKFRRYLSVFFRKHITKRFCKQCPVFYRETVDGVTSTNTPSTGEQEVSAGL
Experiment: CCR2 binding assay ([125I]MCP-1, SPA, CHO cell membranes)
Set-up: expressed in transfected cells; host or cells: CHO cells (membrane preparation)
Settings: membranes from CHO cells expressing hCCR2b, 50 pM [125I]MCP-1; read-out: Binding hCCR2 (Ki)
Method in brief: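 CHO membranes expressing hCCR2b (1–5 µg/well) with 50 pM [125I]MCP-1 and WGA SPA beads in 50 mM HEPES pH 7.4, 5 mM MgCl2, 1 mM CaCl2, 0.1% BSA, 1% DMSO; 90 min RT with agitation. Bound counts on scintillation counter; nonspecific defined by 1000-fold excess unlabeled compound.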

Row | Structure (SMILES) | Ki [nM]
1 | CCCN1CCC2(CC1)OC(=O)C(C)=C2C(=O)N1CCc2ccc(C(F)(F)F)cc2C1 [Compound 28, 3-methyl-8-propyl-4-{[7-(trifluoromethyl)-3,4-dihydroisoquinolin-2(1H)-yl]carbonyl}-1-oxa-8-azaspiro[4.5]dec-3-en-2-one] | < 50
2 | CC1=C(C(=O)N2CCc3ccc(C(F)(F)F)cc3C2)C2(CCN(C3CCC(O)CC3)CC2)OC1=O (stereo not shown) [Compound 31, 8-(4-hydroxycyclohexyl)-3-methyl-4-{[7-(trifluoromethyl)-3,4-dihydroisoquinolin-2(1H)-yl]carbonyl}-1-oxa-8-azaspiro[4.5]dec-3-en-2-one] | < 50
3 | COc1ccccc1CCN1CCC2(CC1)OC(=O)C(C)=C2C(=O)N1CCc2ccc(C(F)(F)F)cc2C1 [Compound 65, 8-[2-(2-methoxyphenyl)ethyl]-3-methyl-4-{[7-(trifluoromethyl)-3,4-dihydroisoquinolin-2(1H)-yl]carbonyl}-1-oxa-8-azaspiro[4.5]dec-3-en-2-one] | < 50
4 | COCCCN1CCC2(CC1)OC(=O)C(C)=C2C(=O)N1CCc2ccc(C(F)(F)F)cc2C1 [Compound 18, 8-(3-methoxypropyl)-3-methyl-4-{[7-(trifluoromethyl)-3,4-dihydroisoquinolin-2(1H)-yl]carbonyl}-1-oxa-8-azaspiro[4.5]dec-3-en-2-one] | < 50
5 | CC1=C(C(=O)N2CCN(c3cccc(C(F)(F)F)c3)CC2)C2(CCN(CC3CCOC3)CC2)OC1=O (stereo not shown) [Compound 22, 3-methyl-8-(tetrahydrofuran-3-ylmethyl)-4-({4-[3-(trifluoromethyl)phenyl]piperazin-1-yl}carbonyl)-1-oxa-8-azaspiro[4.5]dec-3-en-2-one] | < 50
6 | CC1=C(C(=O)N2CCc3ccc(C(F)(F)F)cc3C2)C2(CCN(CCO)CC2)OC1=O [Compound 20, 8-(2-hydroxyethyl)-3-methyl-4-{[7-(trifluoromethyl)-3,4-dihydroisoquinolin-2(1H)-yl]carbonyl}-1-oxa-8-azaspiro[4.5]dec-3-en-2-one] | < 50
7 | CC1=C(C(=O)N2CCc3ncc(C(F)(F)F)cc3C2)C2(CCN(C3CCOC(C)C3)CC2)OC1=O (stereo not shown) [Compound 47, 3-methyl-8-(2-methyltetrahydro-2H-pyran-4-yl)-4-{[3-(trifluoromethyl)-7,8-dihydro-1,6-naphthyridin-6(5H)-yl]carbonyl}-1-oxa-8-azaspiro[4.5]dec-3-en-2-one] | < 50
8 | CC1=C(C(=O)N2CCc3ccc(C(F)(F)F)cc3C2)C2(CCN(CCF)CC2)OC1=O [Compound 17, 8-(2-fluoroethyl)-3-methyl-4-{[7-(trifluoromethyl)-3,4-dihydroisoquinolin-2(1H)-yl]carbonyl}-1-oxa-8-azaspiro[4.5]dec-3-en-2-one] | < 50
9 | CCN1CCC2(CC1)OC(=O)C(C)=C2C(=O)N1CCN(c2cncc(C(F)(F)F)c2)CC1 [Compound 60, 8-ethyl-3-methyl-4-({4-[5-(trifluoromethyl)pyridin-3-yl]piperazin-1-yl}carbonyl)-1-oxa-8-azaspiro[4.5]dec-3-en-2-one] | 50 to 100
10 | CC1=C(C(=O)N2CCN(c3cccc(C(F)(F)F)c3)CC2)C2(CCN(CCc3cccc(Cl)c3)CC2)OC1=O [Compound 15, 8-[2-(3-chlorophenyl)ethyl]-3-methyl-4-({4-[3-(trifluoromethyl)phenyl]piperazin-1-yl}carbonyl)-1-oxa-8-azaspiro[4.5]dec-3-en-2-one] | < 50
11 | COc1ccc(C2(O)CCC(N3CCC4(CC3)OC(=O)C(C)=C4C(=O)N3CCc4ccc(C(F)(F)F)cc4C3)CC2)cn1 (stereo not shown) [Compound 25, 8-[4-hydroxy-4-(6-methoxypyridin-3-yl)cyclohexyl]-3-methyl-4-{[7-(trifluoromethyl)-3,4-dihydroisoquinolin-2(1H)-yl]carbonyl}-1-oxa-8-azaspiro[4.5]dec-3-en-2-one] | < 50
12 | CC1=C(C(=O)N2CCN(c3cccc(C(F)(F)F)c3)CC2)C2(CCN(CCC(=O)O)CC2)OC1=O [Compound 10, 3-[3-methyl-2-oxo-4-({4-[3-(trifluoromethyl)phenyl]piperazin-1-yl}carbonyl)-1-oxa-8-azaspiro[4.5]dec-3-en-8-yl]propanoic acid] | 100 to 500
13 | CCN1CCC2(CC1)OC(=O)C(C)=C2C(=O)N1CCN(c2cccc(C)c2)CC1 [Compound 68, 8-ethyl-3-methyl-4-{[4-(3-methylphenyl)piperazin-1-yl]carbonyl}-1-oxa-8-azaspiro[4.5]dec-3-en-2-one] | 500 to 2000
14 | CCN1CCC2(CC1)OC(=O)C(C)=C2C(=O)Nc1cnn(-c2ccc(C(F)(F)F)cc2)c1 [Compound 67, 8-ethyl-3-methyl-2-oxo-N-{1-[4-(trifluoromethyl)phenyl]-1H-pyrazol-4-yl}-1-oxa-8-azaspiro[4.5]dec-3-ene-4-carboxamide] | 500 to 2000
15 | CC1=C(C(=O)N2CCN(c3cccc(C(F)(F)F)c3)CC2)C2(CCN(CCc3ccccc3Cl)CC2)OC1=O [Compound 14, 8-[2-(2-chlorophenyl)ethyl]-3-methyl-4-({4-[3-(trifluoromethyl)phenyl]piperazin-1-yl}carbonyl)-1-oxa-8-azaspiro[4.5]dec-3-en-2-one] | 100 to 500
16 | CC1=C(C(=O)N2CCc3ccc(C(F)(F)F)cc3C2)C2(CCN(C3CCOC(C)C3)CC2)OC1=O (stereo not shown) [Compound 36, 3-methyl-8-(2-methyltetrahydro-2H-pyran-4-yl)-4-{[7-(trifluoromethyl)-3,4-dihydroisoquinolin-2(1H)-yl]carbonyl}-1-oxa-8-azaspiro[4.5]dec-3-en-2-one] | < 50
17 | CCN1CCC2(C1)OC(=O)C(C)=C2C(=O)N1CCc2ccc(C(F)(F)F)cc2C1 (stereo not shown) [Compound 42, 7-ethyl-3-methyl-4-{[7-(trifluoromethyl)-3,4-dihydroisoquinolin-2(1H)-yl]carbonyl}-1-oxa-7-azaspiro[4.4]non-3-en-2-one] | < 50
18 | CC1=C(C(=O)N2CCc3ccc(C(F)(F)F)cc3C2)C2(CCN(CCN3CCOCC3)CC2)OC1=O [Compound 19, 3-methyl-8-(2-morpholin-4-ylethyl)-4-{[7-(trifluoromethyl)-3,4-dihydroisoquinolin-2(1H)-yl]carbonyl}-1-oxa-8-azaspiro[4.5]dec-3-en-2-one] | < 50
19 | CC1=C(C(=O)N2CCN(c3cccc(C(F)(F)F)c3)CC2)C2(CCN(C3CCOCC3)CC2)OC1=O [Compound 21, 3-methyl-8-(tetrahydro-2H-pyran-4-yl)-4-({4-[3-(trifluoromethyl)phenyl]piperazin-1-yl}carbonyl)-1-oxa-8-azaspiro[4.5]dec-3-en-2-one] | < 50
20 | CC1=C(C(=O)N2CCN(c3cccc(C(F)(F)F)c3)CC2)C2(CCN(C3CCC(C(=O)O)CC3)CC2)OC1=O (stereo not shown) [Compound 24, 4-[3-methyl-2-oxo-4-({4-[3-(trifluoromethyl)phenyl]piperazin-1-yl}carbonyl)-1-oxa-8-azaspiro[4.5]dec-3-en-8-yl]cyclohexanecarboxylic acid] | 50 to 100
21 | COCCN1CCC2(CC1)OC(=O)C(C)=C2C(=O)N1CCN(c2cccc(C(F)(F)F)c2)CC1 [Example 4, 8-(2-methoxyethyl)-3-methyl-4-({4-[3-(trifluoromethyl)phenyl]piperazin-1-yl}carbonyl)-1-oxa-8-azaspiro[4.5]dec-3-en-2-one] | < 50
22 | CC1=C(C(=O)N2CCN(c3cccc(C(F)(F)F)c3)CC2)C2(CCN(C(C)C)C2)OC1=O (stereo not shown) [Compound 117, 7-isopropyl-3-methyl-4-({4-[3-(trifluoromethyl)phenyl]piperazin-1-yl}carbonyl)-1-oxa-7-azaspiro[4.4]non-3-en-2-one] | < 50
23 | CCN1CCC2(CC1)OC(=O)C(C)=C2C(=O)NCc1cccc(C(F)(F)F)c1 [Compound 89, 8-ethyl-3-methyl-2-oxo-N-[3-(trifluoromethyl)benzyl]-1-oxa-8-azaspiror[4.5]dec-3-ene-4-carboxamide] | 50 to 100
24 | CCN1CCC2(CC1)OC(=O)C(C)=C2C(=O)N1CCC(c2cccc(C(F)(F)F)c2)C1 (stereo not shown) [Compound 55, 8-ethyl-3-methyl-4-({3-[3-(trifluoromethyl)phenyl]pyrrolidin-1-yl}carbonyl)-1-oxa-8-azaspiro[4.5]dec-3-en-2-one] | 100 to 500
25 | CC1=C(C(=O)N2CCc3ccc(C(F)(F)F)cc3C2)C2(CCN(C3CCN(C)CC3)CC2)OC1=O [Compound 38, 3-methyl-8-(1-methylpiperidin-4-yl)-4-{[7-(trifluoromethyl)-3,4-dihydroisoquinolin-2(1H)-yl]carbonyl}-1-oxa-8-azaspiro[4.5]dec-3-en-2-one] | 100 to 500
26 | CCN1CCC2(CC1)OC(=O)C(C)=C2C(=O)N1CCN(c2cccc(F)c2)CC1 [Compound 80, 8-ethyl-4-{[4-(3-fluorophenyl)piperazin-1-yl]carbonyl}-3-methyl-1-oxa-8-azaspiro[4.5]dec-3-en-2-one] | 500 to 2000
27 | CCN1CCC2(CC1)OC(=O)C(C)=C2C(=O)N1CCN(c2cccc(OC(F)(F)F)c2)CC1 [Compound 81, 8-ethyl-3-methyl-4-({4-[3-(trifluoromethoxy)phenyl]piperazin-1-yl}carbonyl)-1-oxa-8-azaspiro[4.5]dec-3-en-2-one] | < 50
28 | CC1=C(C(=O)N2CCc3ccc(C(F)(F)F)cc3C2)C2(CCNCC2)OC1=O [Compound 76, 3-methyl-4-{[7-(trifluoromethyl)-3,4-dihydroisoquinolin-2(1H)-yl]carbonyl}-1-oxa-8-azaspiro[4.5]dec-3-en-2-one, hydrocloride salt] | < 50
